Experimental data from ChEMBL document CHEMBL3875150, “Biological evaluation of some new N-(2,6-dimethoxypyrimidinyl) thioureido benzenesulfonamide derivatives as potential antimicrobial and anticancer agents” (Eur J Med Chem, 2016).
Values after ≈ are worked out from the molar mass of the structure shown.

Assays:
[1] = (§1) Cytotoxicity against human MCF7 cells assessed as decrease in cell viability after 24 hrs by MTT assay; assay type: functional, cell-based; conditions: MCF7, 24 h
[2] = system: MCF7; experiment: as §1; assay type: functional, cell-based
[3] = system: Escherichia coli; experiment: Antibacterial activity against Escherichia coli RCMB 010052 assessed as diameter of inhibition zone at 1 mg/mL after 24 to 48 hrs by agar well diffusion method; assay type: functional; conditions: read-out: DIZ
[4] = system: Candida albicans; experiment: Antifungal activity against Candida albicans RCMB 005036 assessed as diameter of inhibition zone at 1 mg/mL after 24 to 48 hrs by agar well diffusion method; assay type: functional; conditions: read-out: DIZ
[5] = system: Aspergillus fumigatus; experiment: Antifungal activity against Aspergillus fumigatus RCMB 002568 assessed as diameter of inhibition zone at 1 mg/mL after 48 hrs by agar well diffusion method; assay type: functional; conditions: RCMB 002568, 48 h, read-out: DIZ
[6] = system: Pseudomonas aeruginosa; experiment: Antibacterial activity against Pseudomonas aeruginosa RCMB 010043 assessed as diameter of inhibition zone at 1 mg/mL after 24 to 48 hrs by agar well diffusion method; assay type: functional; conditions: read-out: DIZ
[7] = system: Pseudomonas aeruginosa; experiment: Antibacterial activity against Pseudomonas aeruginosa RCMB 010043 after 24 to 48 hrs by agar well diffusion method; assay type: functional
[8] = system: Streptococcus pneumoniae; experiment: Antibacterial activity against Streptococcus pneumoniae RCMB 010010 assessed as diameter of inhibition zone at 1 mg/mL after 24 to 48 hrs by agar well diffusion method; assay type: functional; conditions: read-out: DIZ
[9] = system: Bacillus subtilis; experiment: Antibacterial activity against Bacillus subtilis RCMB 010067 assessed as diameter of inhibition zone at 1 mg/mL after 24 to 48 hrs by agar well diffusion method; assay type: functional; conditions: read-out: DIZ
[10] = system: Streptococcus pneumoniae; experiment: Antibacterial activity against Streptococcus pneumoniae RCMB 010010 after 24 to 48 hrs by agar well diffusion method; assay type: functional
[11] = system: Bacillus subtilis; experiment: Antibacterial activity against Bacillus subtilis RCMB 010067 after 24 to 48 hrs by agar well diffusion method; assay type: functional
[12] = system: Escherichia coli; experiment: Antibacterial activity against Escherichia coli RCMB 010052 after 24 to 48 hrs by agar well diffusion method; assay type: functional
[13] = system: Aspergillus fumigatus; experiment: Antifungal activity against Aspergillus fumigatus RCMB 002568 after 24 to 48 hrs by agar well diffusion method; assay type: functional
[14] = system: Candida albicans; experiment: Antifungal activity against Candida albicans RCMB 005036 after 24 to 48 hrs by agar well diffusion method; assay type: functional

| Structure (SMILES) | IC50 [1] | Activity [2] | zone of inhibition at 1000 µg/mL [3] | zone of inhibition at 1000 µg/mL [4] | zone of inhibition at 1000 µg/mL [5] | zone of inhibition at 1000 µg/mL [6] | MIC [7] | zone of inhibition at 1000 µg/mL [8] | zone of inhibition at 1000 µg/mL [9] | MIC [10] | MIC [11] | MIC [12] | MIC [13] | MIC [14] |
| --- | --- | --- | --- | --- | --- | --- | --- | --- | --- | --- | --- | --- | --- | --- |
| COc1cc(NS(=O)(=O)c2ccc(NC(=S)Nc3ccc4c(c3)oc(=O)c3ccccc34)cc2)nc(OC)n1 | 40.3 µg/mL (≈ 71.5 µM) | Dose-dependent effect | 7.8 mm | 13.1 mm | 14.2 mm | – | – | – | – | – | – | – | – | – |
| COc1cc(NS(=O)(=O)c2ccc(NC(=S)Nc3cc(=O)n(C)c(=O)n3C)cc2)nc(OC)n1 | 96.1 µg/mL (≈ 189 µM) | Dose-dependent effect | 19.1 mm | 13.8 mm | 15.7 mm | 8.1 mm | 500 µg/mL (≈ 985 µM) | 17.9 mm | 18.5 mm | 7.81 µg/mL (≈ 15.4 µM) | 3.9 µg/mL (≈ 7.68 µM) | 3.9 µg/mL (≈ 7.68 µM) | 62.5 µg/mL (≈ 123 µM) | 125 µg/mL (≈ 246 µM) |
| O=C(O)c1cn(C2CC2)c2cc(N3CCNCC3)c(F)cc2c1=O [CIPROFLOXACIN] | – | – | 25.8 mm | – | – | 21.3 mm | – | 22.4 mm | 27.2 mm | 0.98 µg/mL (≈ 2.96 µM) | 0.1 µg/mL (≈ 0.302 µM) | – | – | – |
| COc1cc(NS(=O)(=O)c2ccc(NC(=S)Nc3cccc4nsnc34)cc2)nc(OC)n1 | > 200 µg/mL | Dose-dependent effect | 24.2 mm | 20.4 mm | 22.3 mm | 11.7 mm | 250 µg/mL (≈ 496 µM) | 22.7 mm | 26.3 mm | 1.95 µg/mL (≈ 3.87 µM) | 0.98 µg/mL (≈ 1.95 µM) | 0.98 µg/mL (≈ 1.95 µM) | 1.95 µg/mL (≈ 3.87 µM) | 3.9 µg/mL (≈ 7.74 µM) |
| COc1cc(NS(=O)(=O)c2ccc(NC(=S)Nc3nc(C)cc(C)n3)cc2)nc(OC)n1 | 82.9 µg/mL (≈ 174 µM) | Dose-dependent effect | – | – | – | – | – | – | – | – | – | – | – | – |
| CCn1c2ccccc2c2cc(NC(=S)Nc3ccc(S(=O)(=O)Nc4cc(OC)nc(OC)n4)cc3)ccc21 | 143 µg/mL (≈ 254 µM) | Dose-dependent effect | – | 12.1 mm | 10.3 mm | – | – | – | – | – | – | – | – | – |
| COc1cc(NS(=O)(=O)c2ccc(NC(=S)Nc3nc4ccc([N+](=O)[O-])cc4s3)cc2)nc(OC)n1 | 9.43 µg/mL (≈ 17.2 µM) | Dose-dependent effect | 13.3 mm | 10.8 mm | 11.7 mm | – | > 1000 µg/mL | 13.3 mm | 14.1 mm | 125 µg/mL (≈ 228 µM) | 125 µg/mL (≈ 228 µM) | 125 µg/mL (≈ 228 µM) | 250 µg/mL (≈ 457 µM) | 250 µg/mL (≈ 457 µM) |
| COc1cc(NS(=O)(=O)c2ccc(NC(=S)Nc3nnc(C)c(C)n3)cc2)nc(OC)n1 | 44.8 µg/mL (≈ 94 µM) | Dose-dependent effect | – | – | – | – | – | – | – | – | – | – | – | – |
| CCOc1ccc2nc(NC(=S)Nc3ccc(S(=O)(=O)Nc4cc(OC)nc(OC)n4)cc3)sc2c1 | > 200 µg/mL | Dose-dependent effect | 18.3 mm | 19.1 mm | 18.3 mm | 9.2 mm | 500 µg/mL (≈ 915 µM) | 20.3 mm | 21.3 mm | 3.9 µg/mL (≈ 7.13 µM) | 3.9 µg/mL (≈ 7.13 µM) | 7.81 µg/mL (≈ 14.3 µM) | 7.81 µg/mL (≈ 14.3 µM) | 7.81 µg/mL (≈ 14.3 µM) |
| COc1cc(NS(=O)(=O)c2ccc(NC(=S)Nc3c(C)n(C)n(-c4ccccc4)c3=O)cc2)nc(OC)n1 | 113 µg/mL (≈ 203 µM) | Dose-dependent effect | – | 12.6 mm | 13.6 mm | – | – | – | – | – | – | – | – | – |
| COc1cc(NS(=O)(=O)c2ccc(NC(=S)Nc3cnccn3)cc2)nc(OC)n1 | > 200 µg/mL | Dose-dependent effect | 28.7 mm | 23.4 mm | 24.9 mm | 18.3 mm | 62.5 µg/mL (≈ 140 µM) | 25.8 mm | 26.4 mm | 0.98 µg/mL (≈ 2.19 µM) | 0.98 µg/mL (≈ 2.19 µM) | 0.49 µg/mL (≈ 1.09 µM) | 0.98 µg/mL (≈ 2.19 µM) | 1.95 µg/mL (≈ 4.36 µM) |
| COc1cc(NS(=O)(=O)c2ccc(NC(=S)Nc3ccc4c(C)cc(=O)oc4c3)cc2)nc(OC)n1 | 35.2 µg/mL (≈ 66.7 µM) | Dose-dependent effect | 23.4 mm | 18.1 mm | 20.3 mm | 10.6 mm | 125 µg/mL (≈ 237 µM) | 20.6 mm | 23.4 mm | 3.9 µg/mL (≈ 7.39 µM) | 1.95 µg/mL (≈ 3.7 µM) | 1.95 µg/mL (≈ 3.7 µM) | 3.9 µg/mL (≈ 7.39 µM) | 7.81 µg/mL (≈ 14.8 µM) |
| COc1cc(NS(=O)(=O)c2ccc(NC(=S)Nc3cc(C)nc4ccccc34)cc2)nc(OC)n1 | 68.7 µg/mL (≈ 135 µM) | Dose-dependent effect | 15 mm | 14.5 mm | 13.7 mm | 8.9 mm | 500 µg/mL (≈ 979 µM) | 13.9 mm | 14.4 mm | 125 µg/mL (≈ 245 µM) | 125 µg/mL (≈ 245 µM) | 125 µg/mL (≈ 245 µM) | 125 µg/mL (≈ 245 µM) | 125 µg/mL (≈ 245 µM) |
| C[C@@H]1[C@H](O)[C@@H](C)/C=C/C=C/C=C/C=C/C=C/C=C/C=C/[C@H](O[C@@H]2O[C@H](C)[C@@H](O)[C@H](N)[C@@H]2O)C[C@@H]2O[C@](O)(C[C@@H](O)C[C@@H](O)[C@H](O)CC[C@@H](O)C[C@@H](O)CC(=O)O[C@H]1C)C[C@H](O)[C@H]2C(=O)O [AMPHOTERICIN B] | – | – | – | 25.4 mm | 23.7 mm | – | – | – | – | – | – | – | 1.95 µg/mL (≈ 2.11 µM) | 3.9 µg/mL (≈ 4.22 µM) |
| CCSc1nnc(NC(=S)Nc2ccc(S(=O)(=O)Nc3cc(OC)nc(OC)n3)cc2)s1 | 119 µg/mL (≈ 232 µM) | Dose-dependent effect | – | 12.5 mm | 14.3 mm | – | – | – | – | – | – | – | – | – |
| COc1cc(NS(=O)(=O)c2ccc(NC(=S)Nc3ccncc3)cc2)nc(OC)n1 | 168 µg/mL (≈ 376 µM) | Dose-dependent effect | 13.2 mm | 13.9 mm | 15.6 mm | – | > 1000 µg/mL | 15.3 mm | 15.9 mm | 62.5 µg/mL (≈ 140 µM) | 62.5 µg/mL (≈ 140 µM) | 125 µg/mL (≈ 280 µM) | 62.5 µg/mL (≈ 140 µM) | 125 µg/mL (≈ 280 µM) |
| COc1cc(NS(=O)(=O)c2ccc(NC(=S)Nc3cccnc3)cc2)nc(OC)n1 | 170 µg/mL (≈ 380 µM) | Dose-dependent effect | – | – | – | – | – | – | – | – | – | – | – | – |
| O=c1[nH]cc(F)c(=O)[nH]1 [FLUOROURACIL] | 4.8 µg/mL (≈ 36.9 µM) | Dose-dependent effect | – | – | – | – | – | – | – | – | – | – | – | – |
| COc1cc(NS(=O)(=O)c2ccc(NC(=S)NN3C(=O)CSC3=S)cc2)nc(OC)n1 | 47.7 µg/mL (≈ 95.3 µM) | Dose-dependent effect | 27.2 mm | 22.3 mm | 24.3 mm | 14.9 mm | 62.5 µg/mL (≈ 125 µM) | 24.3 mm | 28.1 mm | 0.98 µg/mL (≈ 1.96 µM) | 0.49 µg/mL (≈ 0.979 µM) | 0.49 µg/mL (≈ 0.979 µM) | 0.98 µg/mL (≈ 1.96 µM) | 1.95 µg/mL (≈ 3.9 µM) |
| COc1cc(NS(=O)(=O)c2ccc(NC(=S)Nc3nccc4ccccc34)cc2)nc(OC)n1 | > 200 µg/mL | Dose-dependent effect | – | – | – | – | – | – | – | – | – | – | – | – |
